Measured values taken from publication PMC10815500, “Design of Two New Sulfur Derivatives of Perezone: In Silico Study Simulation Targeting PARP-1 and In Vitro Study Validation Using Cancer Cell Lines” (International Journal of Molecular Sciences, 2024).
Like-named read-outs stand apart in the source and are kept apart here.

Key:
A-549 = assay: MTT cytotoxic assay, A-549 cells; assay type: cell-based; settings: Homo sapiens, A549, cancer cell line, 48 h, read-out: Inhibitory concentration (IC50) A-549
Description: (§1) At the end of this time, 20 µL of the MTT solution (5 mg/mL) was added to each well and incubated for 4 h in the dark at 37 °C and 5% CO2. The supernatant was decanted, and the resulting formazan was dissolved in isopropyl alcohol with 4 mM HCl solution and was read in a UV/Vis reader at 590 nm. The results obtained were plotted, and the IC50 was obtained through linear regression.

MCF-7 = assay: MTT cytotoxic assay, MCF-7 cells; assay type: cell-based; settings: Homo sapiens, MCF7, cancer cell line, 48 h, read-out: Inhibitory concentration (IC50) MCF-7
Description: as §1

VERO = assay: MTT cytotoxic assay, VERO cells; assay type: cell-based; settings: Chlorocebus sabaeus, normal cell line, 48 h, read-out: Inhibitory concentration (IC50) VERO
Description: as §1, with “regression. […]” for “regression.”
(§2) of the incubation, an MTT assay was performed to determine the viability of cells under treatment. Each bar in the chart indicates the percentage means and standard error of the mean. […]
(§3) healthy endothelial cells, VERO cells, and mixed culture of microglia, employing perezone (dotted) as a control. Cells from each line were incubated without control and with increased concentrations of the studied compounds during 48 h (n= 8). At the end of the incubation, an MTT assay was performed to determine the viability of cells under treatment. Each bar in the chart indicates the percentage means and […]
(§4) (1 picture or pasted object on this page, not shown here)

MDA-MB-231 = assay: MTT cytotoxic assay, MDA-MB-231 cells; assay type: cell-based; settings: Homo sapiens, cancer cell line, 48 h, read-out: Inhibitory concentration (IC50) MDA-MB-231
Description: as §1

HELA = assay: MTT cytotoxic assay, Hela cells; assay type: cell-based; settings: Homo sapiens, cancer cell line, 48 h, read-out: Inhibitory concentration (IC50) HELA
Description: as §1

Mix cells = assay: MTT cytotoxic assay, mixed culture of microglia; assay type: cell-based; settings: normal cells, 48 h, read-out: Inhibitory concentration (IC50) Mix cells
Description: as §1, with “regression. […]” for “regression.”
as §2, §3, §4

PARP-1 enzyme [1] = target: T1, PARP-1 enzyme (Homo sapiens, UniProt P09874); set-up: purchased BPS Bioscience Inc. 80580; settings: previously demonstrated; read-out: IC50 (PARP-1 inhibition) of perezone and natural derivatives; cited from earlier work
Rat endothelial cells = assay: MTT cytotoxic assay, healthy endothelial cells; assay type: cell-based; settings: Endothelial cell, normal cell line, 48 h, read-out: Inhibitory concentration (IC50) Rat endothelial cells
Description: as §1, with “regression. […]” for “regression.”
as §2, §3, §4

PARP-1 enzyme [2] = target: T1, PARP-1 enzyme; assay: PARP-1 inhibition assay (colorimetric assay kit)
Description: Absorbances were obtained at 450 nm using a UV/Vis spectrophotometer E max Precision microplate reader (Molecular Devices, San Jose, CA, USA).

T1 sequence (P09874 whole entry): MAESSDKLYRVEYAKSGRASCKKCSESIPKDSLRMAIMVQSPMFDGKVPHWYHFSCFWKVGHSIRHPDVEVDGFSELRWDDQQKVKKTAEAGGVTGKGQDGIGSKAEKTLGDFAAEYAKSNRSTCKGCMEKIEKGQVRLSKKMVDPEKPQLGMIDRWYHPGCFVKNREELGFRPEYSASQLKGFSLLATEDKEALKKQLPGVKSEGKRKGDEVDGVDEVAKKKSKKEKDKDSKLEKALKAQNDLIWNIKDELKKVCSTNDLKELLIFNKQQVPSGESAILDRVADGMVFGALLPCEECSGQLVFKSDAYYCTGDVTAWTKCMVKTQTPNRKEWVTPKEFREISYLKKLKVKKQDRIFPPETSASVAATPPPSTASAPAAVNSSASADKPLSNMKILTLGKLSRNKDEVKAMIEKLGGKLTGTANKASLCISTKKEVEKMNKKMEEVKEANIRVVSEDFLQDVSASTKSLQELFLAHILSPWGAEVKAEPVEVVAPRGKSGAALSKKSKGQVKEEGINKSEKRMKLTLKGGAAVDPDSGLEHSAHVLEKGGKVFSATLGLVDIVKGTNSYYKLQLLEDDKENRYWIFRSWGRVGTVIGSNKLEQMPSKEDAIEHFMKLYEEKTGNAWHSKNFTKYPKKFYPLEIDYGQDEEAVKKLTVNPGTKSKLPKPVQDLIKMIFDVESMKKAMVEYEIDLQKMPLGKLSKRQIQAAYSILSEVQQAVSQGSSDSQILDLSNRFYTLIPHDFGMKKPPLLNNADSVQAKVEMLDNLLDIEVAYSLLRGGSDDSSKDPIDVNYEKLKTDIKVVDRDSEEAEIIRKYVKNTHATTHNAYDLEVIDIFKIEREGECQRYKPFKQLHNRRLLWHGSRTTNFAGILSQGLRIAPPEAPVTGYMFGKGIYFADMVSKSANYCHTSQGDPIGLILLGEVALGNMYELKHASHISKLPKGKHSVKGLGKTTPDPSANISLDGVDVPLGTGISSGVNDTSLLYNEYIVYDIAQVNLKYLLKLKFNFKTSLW

Row | IC50 (PARP-1 enzyme [2]) [µM] | SMILES | IC50 (A-549) [µM] | IC50 (MCF-7) [µM] | IC50 (VERO) [µM] | IC50 (MDA-MB-231) [µM] | IC50 (HELA) [µM] | IC50 (Mix cells) [µM] | IC50 (PARP-1 enzyme [1]) [µM] | IC50 (Rat endothelial cells) [µM]
1 |  | CC(C)=CCC[C@@H](C)C1=C(O)C(=O)C(C)=CC1=O [Compound 1, perezone] | 144 | 53.2 | 312 | 7.8 | 42.3 | 63.1 | 181 | > 200
2 |  | C/C=C(/C)C(=O)OC1=C([C@H](C)CCC=C(C)C)C(=O)C=C(C)C1=O [Compound 2, perezone angelate] |  |  |  |  |  |  | 5.25 | 
3 |  | CC(C)=CCC[C@@H](C)C1=C(O)C(=O)C(C)=C(O)C1=O [Compound 3, hydroxyperezone] |  |  |  |  |  |  | 320 | 
4 | 0.317 | CC(C)=CCCC(C)C1=C(O)C(=O)C(C)=C(Sc2ccc(F)cc2CO)C1=O (centres unmarked) [Compound 9, 2-((4-fluoro-2-(hydroxymethyl)phenyl)thio)-5-hydroxy-3-methyl-6-(6-methylhept-5-en-2-yl)cyclohexa-2.5-diene-1,4-dione] | > 200 | 83.2 | 186 | 145 | 200 | 179 |  | > 200
5 | 0.32 | CC(C)=CCCC(C)C1=C(O)C(=O)C(C)=C(Sc2ccc(CC(=O)O)cc2)C1=O (centres unmarked) [Compound 10, 2-(4-((hydroxy-2-methyl-5-(6-methylhept-5-en-2-yl)-3,6-dioxocyclohexa-1,4-dien-1-yl)thio)phenyl)acetic acid] | > 200 | > 200 | 168 | > 200 | > 200 | > 200 |  | > 200
